How the values were obtained:
TNF-α production = TNF-α production inhibitory effect in LPS-stimulated RAW264.7 cells (ELISA); assay type: cell-based; settings: Mus musculus, 8 h, lipopolysaccharide 1 μg/mL, eight hours incubation, TNF-α in culture supernatant by ELISA
Protocol: Method for Determining TNF-α Production Inhibitory Effect
RAW264.7 cells were suspended in a DMEM medium supplemented with 10% fetal bovine serum (FBS), and the suspension was seeded in wells of a 24-well plate (5×10^5/mL/well). Each test compound (0 to 10 μM) was added to the wells, and the mixture was incubated in a CO2 incubator for 30 minutes. Subsequently, lipopolysaccharide was added to the mixture in an amount of 1 μg/mL, and incubation was further performed in a CO2 incubator for eight hours. Eight hours after the start of incubation, the culture supernatant was collected, and the amount of TNF-α contained in the culture broth was determined through ELISA. IC50 value was determined through comparison with the amount of produced TNF-α in the drug-free (blank) case.

[1] = Test on absorption after oral administration in mouse; assay type: in vivo; settings: male ICR mouse, 10 mg/kg oral, suspension in 0.5% HPMC, plasma at 0.25, 0.5, 1 and 4 hours, HPLC; FIG. 1
Protocol: Test on Absorption after Oral Administration in Mouse Each of the test compounds (Examples 7, 10, and 13) was suspended in 0.5% HPMC in a mortar. The suspension was orally administered to each male ICR mouse (6 weeks old) in an amount of 10 mg/kg. At each time of 0.25, 0.5, 1, and 4 hours after oral administration, a blood sample was collected and centrifuged, whereby a plasma sample was prepared. The level of the test compound in the plasma sample was determined through HPLC.

CN1CCN(Cc2cc(-c3ccc4c(c3)CCO4)nn(CC3CC3)c2=O)CC1 [Example 1, 2-cyclopropylmethyl-6-(2,3-dihydro-1-benzofuran-5-yl)-4-(4-methyl-1-piperazinyl)methyl-2H-pyridazin-3-one]
IC50 (TNF-α production): 8.9 µM | melting point: 128 to 130 °C

CN(C)Cc1cc(-c2ccc3c(c2)CCO3)nn(CC2CC2)c1=O [Example 3, 2-cyclopropylmethyl-6-(2,3-dihydro-1-benzofuran-5-yl)-4-dimethylaminomethyl-2H-pyridazin-3-one]
melting point: 109 to 110 °C

CN1CCN(Cc2cc(-c3ccc4c(c3)CCO4)nn(Cc3ccc(F)cc3)c2=O)CC1 [Example 6, 2-(4-fluorobenzyl)-6-(2,3-dihydro-1-benzofuran-5-yl)-4-(4-methyl-1-piperazinyl)methyl-2H-pyridazin-3-one]
IC50 (TNF-α production): 3.1 µM | melting point: 179 to 180 °C

CN1CCN(Cc2cc(-c3ccc4c(c3)CCO4)nn(Cc3ccc(F)cc3)c2=O)CC1.Cl.Cl [Example 7, 2-(4-fluorobenzyl)-6-(2,3-dihydro-1-benzofuran-5-yl)-4-(4-methyl-1-piperazinyl)methyl-2H-pyridazin-3-one dihydrochloride]
absorption after oral administration (level of test compound in plasma) [1]: good absorbability | melting point: 201 to 204 °C (dec.)

CN1CCN(Cc2cc(-c3ccc4c(c3)CCO4)nn(Cc3ccc(Cl)cc3)c2=O)CC1 [Example 8, 2-(4-chlorobenzyl)-6-(2,3-dihydro-1-benzofuran-5-yl)-4-(4-methyl-1-piperazinyl)methyl-2H-pyridazin-3-one]
melting point: 149 to 150 °C

CN1CCN(Cc2cc(-c3ccc4c(c3)CCO4)nn(CC=Cc3ccc(Cl)cc3)c2=O)CC1 [Example 9, 2-(4-chlorocinnamyl)-6-(2,3-dihydro-1-benzofuran-5-yl)-4-(4-methyl-1-piperazinyl)methyl-2H-pyridazin-3-one]
IC50 (TNF-α production): 4.2 µM | melting point: 112 to 113 °C

CN1CCN(Cc2cc(-c3ccc4c(c3)CCO4)nn(CC=Cc3ccc(Cl)cc3)c2=O)CC1.Cl.Cl [Example 10, 2-(4-chlorocinnamyl)-6-(2,3-dihydro-1-benzofuran-5-yl)-4-(4-methyl-1-piperazinyl)methyl-2H-pyridazin-3-one dihydrochloride]
absorption after oral administration (level of test compound in plasma) [1]: good absorbability

CN1CCN(Cc2cc(-c3ccc4occc4c3)nn(Cc3ccc(F)cc3)c2=O)CC1 [Example 11, 6-(1-benzofuran-5-yl)-2-(4-fluorobenzyl)-4-(4-methyl-1-piperazinyl)methyl-2H-pyridazin-3-one]
melting point: 128 to 130 °C

CN1CCN(Cc2cc(-c3ccc4c(c3)CCO4)nn(CCCc3ccccc3Cl)c2=O)CC1 [Example 12, 2-[3-(2-chlorophenyl)propyl]-6-(2,3-dihydro-1-benzofuran-5-yl)-4-(4-methyl-1-piperazinyl)methyl-2H-pyridazin-3-one]
IC50 (TNF-α production): 2.2 µM

CN1CCN(Cc2cc(-c3ccc4c(c3)CCO4)nn(CCCc3ccccc3Cl)c2=O)CC1.Cl.Cl [Example 13, 2-[3-(2-chlorophenyl)propyl]-6-(2,3-dihydro-1-benzofuran-5-yl)-4-(4-methyl-1-piperazinyl)methyl-2H-pyridazin-3-one dihydrochloride]
absorption after oral administration (level of test compound in plasma) [1]: good absorbability

CN1CCN(Cc2cc(-c3ccc4c(c3)CCO4)nn(Cc3ccccc3Cl)c2=O)CC1 [Example 17, 2-(2-chlorobenzyl)-6-(2,3-dihydro-1-benzofuran-5-yl)-4-(4-methyl-1-piperazinyl)methyl-2H-pyridazin-3-one]
IC50 (TNF-α production): 7.5 µM | melting point: 141.4 to 142.1 °C

NCc1cc(-c2ccc3c(c2)CCO3)nn(Cc2ccccc2Cl)c1=O [Example 18, 4-aminomethyl-2-(2-chlorobenzyl)-6-(2,3-dihydro-1-benzofuran-5-yl)-2H-pyridazin-3-one]
IC50 (TNF-α production): 7.5 µM | melting point: 120.1 to 122.8 °C
